Structures can show the parent of a compound that is named as a salt.
Molecular target: T1, human recombinant CCR4 receptor (Homo sapiens, UniProt P51679)
T1 construct: host or cells: CHO-K1
T1 sequence (P51679 1-360): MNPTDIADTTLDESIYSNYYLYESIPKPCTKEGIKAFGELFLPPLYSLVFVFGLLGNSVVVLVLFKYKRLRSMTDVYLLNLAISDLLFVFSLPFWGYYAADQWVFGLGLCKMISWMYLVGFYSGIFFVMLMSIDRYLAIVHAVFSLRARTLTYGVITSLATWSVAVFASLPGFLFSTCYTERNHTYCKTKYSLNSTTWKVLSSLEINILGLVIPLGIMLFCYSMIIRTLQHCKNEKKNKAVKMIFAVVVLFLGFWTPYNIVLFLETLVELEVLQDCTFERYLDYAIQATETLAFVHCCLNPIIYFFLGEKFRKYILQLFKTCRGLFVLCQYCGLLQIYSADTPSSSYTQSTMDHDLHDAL
Experiment: FMAT whole cell binding assay (FB-MDC binding to CHO-K1 cells expressing CCR4)
Conditions: inhibition of 2.8 nM FB-MDC binding to CHO-K1 cells stably expressing human recombinant CCR4; two hours incubation at room temperature; FMAT8100 reader
Description: FMAT Whole cell Binding Assay
CHO-K1 cells stably expressing the human recombinant CCR4 receptor (Euroscreen; Brussels, Belgium) were cultured in NUT.MIX.F—12(HAM) medium with glutamax-1, containing 10% (v/v) foetal bovine serum and 400 μg ml^−1 geneticin.
Cells were harvested at approximately 70% confluence by treatment with a cell dissociation buffer, and seeded at 5×10^3 cells/100 μl culture medium into wells of a black Costar clear-bottomed 96-well microtitre plates. Plates were incubated overnight at 37° C. in 5% CO2 and used the following day.
Before use, the cell plates were washed twice with 100 μl Hanks balanced salt solution (HBSS). To each well was then added 65 μl of HBSS, 10 μL of 10% DMSO in HBSS±test compound and then 25 μL of 2.8 nM FB-MDC (Applied Biosystems). This fluorescent probe was prepared from a 10 μM stock in 0.08% (v/v) TFA/16% (v/v) acetonitrile, diluted into HBSS.
After two hours incubation in the dark at room temperature, the plates were analysed in an FMAT8100 reader (Applied Biosystems) to measure fluorescence that was associated with binding of FB-MDC to the cells. Compound activity was determined as an pIC50 [log(concentration of compound that results in 50% inhibition)], comparing fluorescence in control and background wells.

Row | IC50 [µM] | Structure (SMILES)
1 | 1.58 | COc1nc2ccccc2nc1NS(=O)(=O)c1cccc(Cl)c1Cl [Example 1, 2,3-Dichloro-N-(3-methoxyquinoxalin-2-yl)-benzenesulfonamide]
2 | 0.398 | COc1nc2ccccc2nc1NS(=O)(=O)c1ccc(Cl)s1 [Example 3, 5-Chloro-N-(3-methoxyquinoxalin-2-yl)thiophene-2-sulfonamide]
3 | 2 | O=S(=O)(Nc1nc2ccccc2nc1OCc1ccco1)c1cccs1 [Example 5, N-[3-(2-Furylmethoxy)quinoxalin-2-yl]thiophene-2-sulfonamide]

Tested on: not given
Experiment: not given
Conditions: not given

Row | melting point [°C] | Structure (SMILES)
4 | 238 to 239 | COc1nc2cccnc2nc1NS(=O)(=O)c1cccc(Cl)c1Cl (as salt: TFA) [Example 7, 2,3-Dichloro-N-(2-methoxypyrido[2,3-b]pyrazin-3-yl)benzenesulfonamide]
5 | 215 | COc1cc2nc(NS(=O)(=O)c3cccc(Cl)c3Cl)c(OC)nc2cc1OC [Example 9, 2,3-Dichloro-N-(3,6,7-trimethoxyquinoxalin-2-yl)benzenesulfonamide]
6 | 283 to 285 | COc1nc2cc(Cl)c(Cl)cc2nc1NS(=O)(=O)c1cccc(Cl)c1Cl [Example 10, 2,3-Dichloro-N-(6,7-dichloro-3-methoxyquinoxalin-2-yl)benzenesulfonamide]
7 | 230 to 231 | COc1nc2ncc(Br)cc2nc1NS(=O)(=O)c1cccc(Cl)c1Cl [Example 11, N-(7-Bromo-3-methoxypyrido[2,3-b]pyrazin-2-yl)-2,3-dichlorobenzenesulfonamide]
8 | 233 to 234 | COc1nc2cc(Br)cnc2nc1NS(=O)(=O)c1cccc(Cl)c1Cl [Example 12, N-(7-bromo-2-methoxypyrido[2,3-b]pyrazin-3-yl)-2,3-dichlorobenzenesulfonamide]
9 | 256 to 257 | COc1nc2cnccc2nc1NS(=O)(=O)c1cccc(Cl)c1Cl [Example 13, 2,3-Dichloro-N-(3-methoxypyrido[3,4-b]pyrazin-2-yl)benzenesulfonamide]

Reference: patent publication US20070093491A1, “Novel condensed n-pyrazinyl-sulphonamides and their use in the treament of chemokine mediated diseases” (priority 2003, published 2007)
